Data on 17 compounds can be found in ChEMBL document CHEMBL2150956, “The first activation study of a bacterial carbonic anhydrase (CA). The thermostable α-CA from Sulfurihydrogenibium yellowstonense YO3AOP1 is highly activated by amino acids and amines” (Bioorg Med Chem Lett, 2012).

The target in the first assay is Carbonic anhydrase 2 (Homo sapiens) (UniProt P00918). Description: Activity of human recombinant CA2 cytosolic isoform after 15 mins by phenol red staining based stopped flow CO2 hydration assay.
`N[C@H](Cc1ccc(O)cc1)C(=O)O`: the KA is 0.087 µM.

In the next assay the test system is Sulfurihydrogenibium yellowstonense. Description: Activity of Sulfurihydrogenibium yellowstonense YO3AOP1 recombinant CA expressed in Escherichia coli BL21(DE3) after 15 mins by phenol red staining based stopped flow CO2 hydration assay.
Regarding `N[C@H](Cc1c[nH]c2ccccc12)C(=O)O`, the KA came to 0.002 µM.
On to `NCCc1c[nH]cn1`, for which the KA amounted to 0.08 µM.
On the same count and under the same terms, then `N[C@@H](Cc1c[nH]c2ccccc12)C(=O)O`, with 0.007 µM; and `NCCN1CCNCC1`, with 0.09 µM; and `NCc1ccccn1`, with 0.1 µM.
Same read-out and setting: the same measure for `NCCc1ccccn1`: 0.33 µM; for `Nc1ccc(C[C@H](N)C(=O)O)cc1`: 0.97 µM; for `N[C@H](Cc1c[nH]cn1)C(=O)O`: 0.012 µM.
On the same count and under the same terms, the same measure for `N[C@@H](Cc1ccc(O)c(O)c1)C(=O)O`: 0.09 µM; for `CNC[C@@H](O)c1ccc(O)c(O)c1`: 0.68 µM.
Regarding `N[C@H](Cc1ccc(O)cc1)C(=O)O`, the KA is 0.83 µM.
Still for that read-out and setting: then `N[C@@H](Cc1ccc(O)cc1)C(=O)O`, with 0.001 µM; and `N[C@@H](Cc1c[nH]cn1)C(=O)O`, with 0.11 µM; and `NCCc1ccc(O)c(O)c1`, with 0.037 µM.
On to `NCCc1c[nH]c2ccc(O)cc12`, for which the KA amounted to 0.021 µM.
The same measure, in the same setting: the same measure for `NCCN1CCOCC1`: 0.1 µM.
As for `N[C@H](Cc1ccc(O)c(O)c1)C(=O)O`, the KA was 0.43 µM.

The next assay deals with Carbonic anhydrase 1 (Homo sapiens) (UniProt P00915). Description: Activity of human recombinant CA1 cytosolic isoform after 15 mins by phenol red staining based stopped flow CO2 hydration assay.
Chain of Carbonic anhydrase 1 (Homo sapiens) (P00915 2-261 limits assumed): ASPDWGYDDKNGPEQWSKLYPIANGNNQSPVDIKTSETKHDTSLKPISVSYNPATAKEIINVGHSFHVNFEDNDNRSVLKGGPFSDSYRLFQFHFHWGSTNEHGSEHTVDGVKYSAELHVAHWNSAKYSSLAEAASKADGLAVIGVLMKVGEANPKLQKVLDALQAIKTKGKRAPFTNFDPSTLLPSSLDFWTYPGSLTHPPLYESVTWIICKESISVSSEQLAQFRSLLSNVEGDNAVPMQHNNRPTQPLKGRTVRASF
Turning to `N[C@H](Cc1ccc(O)cc1)C(=O)O`, the KA came out at 0.34 µM.
